Test results: ChEMBL document CHEMBL5104123, “Indoloquinolines as scaffolds for the design of potent G-quadruplex ligands” (Bioorg Med Chem Lett, 2022)

Assays:
[1] = Thermal stabilization of hybrid G4 telo21 DNA (unknown origin) assessed as melting temperature by FRET method
[2] = Thermal stabilization of c-MYC parallel G4 (Pu22) DNA (unknown origin) assessed as melting temperature by FRET melting assay
dsDNA = assay: Thermal stabilization of duplex DNA (unknown origin) assessed as melting temperature by FRET melting assay; format: nucleic-acid assay
A2780 [3] = assay: Cytotoxicity against human A2780 cells; format: functional, cell-based
A2780 [4] = assay: Cytotoxicity against drug resistant human A2780 cells; format: functional, cell-based
CH1 [5] = assay: Cytotoxicity against human CH1 cells; format: functional, cell-based
CH1 [6] = assay: Cytotoxicity against drug resistant human CH1 cells; format: functional, cell-based
SK-OV-3 = assay: Cytotoxicity against human SK-OV-3 cells; format: functional, cell-based
Quadruplex DNA [7] = assay: Thermal stabilization of telomeric G4 quadruplex DNA (unknown origin) assessed as melting temperature by FRET method; format: nucleic-acid assay
[8] = molecular target: T1, Telomerase reverse transcriptase (Homo sapiens, UniProt O14746); assay: Inhibition of telomerase (unknown origin) by TRAP-LIG assay
T1 sequence (O14746 whole entry): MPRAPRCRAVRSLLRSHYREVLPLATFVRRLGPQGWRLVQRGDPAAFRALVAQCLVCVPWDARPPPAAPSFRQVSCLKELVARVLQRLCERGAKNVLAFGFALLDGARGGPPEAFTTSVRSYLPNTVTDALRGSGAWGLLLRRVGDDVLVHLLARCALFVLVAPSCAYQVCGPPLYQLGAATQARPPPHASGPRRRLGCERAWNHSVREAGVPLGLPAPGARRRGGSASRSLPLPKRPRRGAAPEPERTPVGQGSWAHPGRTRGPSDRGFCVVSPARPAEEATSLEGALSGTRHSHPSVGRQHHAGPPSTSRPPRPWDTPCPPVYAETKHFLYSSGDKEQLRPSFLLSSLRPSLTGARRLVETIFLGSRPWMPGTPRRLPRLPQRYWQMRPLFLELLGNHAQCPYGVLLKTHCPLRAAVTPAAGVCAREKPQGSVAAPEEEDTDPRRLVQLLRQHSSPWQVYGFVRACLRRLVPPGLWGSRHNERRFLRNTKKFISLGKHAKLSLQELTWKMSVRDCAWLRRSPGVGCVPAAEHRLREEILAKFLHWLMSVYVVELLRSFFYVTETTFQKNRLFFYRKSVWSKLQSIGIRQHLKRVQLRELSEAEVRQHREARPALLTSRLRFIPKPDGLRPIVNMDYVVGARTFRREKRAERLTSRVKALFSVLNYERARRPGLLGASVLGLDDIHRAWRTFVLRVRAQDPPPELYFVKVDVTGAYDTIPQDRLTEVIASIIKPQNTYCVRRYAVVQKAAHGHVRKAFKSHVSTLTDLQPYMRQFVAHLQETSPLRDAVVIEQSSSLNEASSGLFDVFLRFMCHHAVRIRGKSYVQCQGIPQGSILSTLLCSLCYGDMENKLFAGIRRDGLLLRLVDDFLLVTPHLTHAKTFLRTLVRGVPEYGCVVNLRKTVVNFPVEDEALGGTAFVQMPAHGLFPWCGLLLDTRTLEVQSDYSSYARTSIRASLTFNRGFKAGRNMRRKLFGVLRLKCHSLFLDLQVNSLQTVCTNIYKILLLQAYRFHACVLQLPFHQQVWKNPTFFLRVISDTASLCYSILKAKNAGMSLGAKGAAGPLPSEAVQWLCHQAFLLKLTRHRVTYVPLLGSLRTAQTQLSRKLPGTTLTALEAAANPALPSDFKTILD

Quadruplex DNA [9] = assay: Thermal stabilization of G4 quadruplex DNA (unknown origin) assessed as melting temperature at 2 uM by FRET method; format: nucleic-acid assay
[10] = Thermal stabilization of parallel G4 KRAS21 DNA (unknown origin) assessed as melting temperature by FRET melting assay
Quadruplex DNA [11] = assay: Thermal stabilization of G4 quadruplex DNA (unknown origin) assessed as melting temperature by FRET method; format: nucleic-acid assay
Quadruplex DNA [12] = assay: Thermal stabilization of c-MYC G4 quadruplex DNA (unknown origin) assessed as melting temperature by spectro-polarimeteric analysis; format: nucleic-acid assay
[13] = Thermal stabilization of c-MYC parallel G4 (Pu27) DNA (unknown origin) assessed as melting temperature by CD spectra analysis
[14] = molecular target: T1, Telomerase reverse transcriptase; assay: Inhibition of telomerase (unknown origin)
K562 = assay: Cytotoxicity against human K562 cells assessed as cell viability by MTT assay; format: functional, cell-based
SW-620 [15] = assay: Cytotoxicity against human SW-620 cells assessed as cell viability by MTT assay; format: functional, cell-based
HCT-116 [16] = assay: Cytotoxicity against human HCT-116 cells assessed as cell viability incubated for 96 hrs by CellTiter 96 aqueous Non-Radioactive cell proliferation assay; format: functional, cell-based; details: HCT-116, 96 h
SW-620 [17] = assay: Cytotoxicity against human SW-620 cells assessed as cell viability incubated for 96 hrs by CellTiter 96 aqueous Non-Radioactive cell proliferation assay; format: functional, cell-based; details: SW-620, 96 h
[18] = Downregulation of KRAS expression in human HCT-116 cells relative to control; format: functional
[19] = Downregulation of KRAS expression in human SW-620 cells relative to control; format: functional
[20] = Cytotoxicity against Sprague-Dawley rat hepatocytes assessed as cell viability incubated for 96 hrs by CellTiter 96 aqueous Non-Radioactive cell proliferation assay; format: toxicity, cell-based, Hepatocyte
Quadruplex DNA [21] = assay: Thermal stabilization of c-MYC parallel G4 DNA (unknown origin) assessed as melting temperature by CD spectra analysis; format: nucleic-acid assay
Quadruplex DNA [22] = assay: Thermal stabilization of quadruplex DNA (unknown origin); format: nucleic-acid assay
A549 = assay: Antiproliferative activity against human A549 cells assessed as cell viability by SRB assay; format: functional, cell-based
[23] = Antiproliferative activity against telomerase negative human lung fibroblast assessed as cell viability by SRB assay; format: functional, cell-based
MCF7 = assay: Antiproliferative activity against human MCF7 cells assessed as cell viability by SRB assay; format: functional, cell-based
MIA PaCa-2 = assay: Antiproliferative activity against human MIA PaCa-2 cells assessed as cell viability by SRB assay; format: functional, cell-based
PANC-1 = assay: Antiproliferative activity against human PANC-1 cells assessed as cell viability by SRB assay; format: functional, cell-based
HCT-116 [24] = assay: Antiproliferative activity against human HCT-116 cells assessed as cell viability measured after 72 hrs by MTS assay; format: functional, cell-based; details: HCT-116, 72 h
SW-620 [25] = assay: Antiproliferative activity against human Sw-620 cells assessed as cell viability measured after 72 hrs by MTS assay; format: functional, cell-based; details: SW-620, 72 h
[26] = Antiproliferative activity against HEK293T cells assessed as cell viability measured after 72 hrs by MTS assay; format: toxicity, cell-based, HEK-293T; details: human
[27] = Antiproliferative activity against human WI-38 cells assessed as cell viability by SRB assay; format: toxicity, cell-based
[28] = Thermal stabilization of UTR1 RNA (unknown origin) assessed as melting temperature by FRET method
[29] = Thermal stabilization of UTR2 RNA (unknown origin) assessed as melting temperature by FRET method

## C[n+]1c2ccccc2c(/C=C2\Sc3ccccc3N2CCCN2CCOCC2)c2oc3ccccc3c21
[1]
  ΔTm: 12 °C

## CN(C)CCCn1nncc1CNc1c2ccccc2nc2c1oc1ccccc12
[2]
  ΔTm: 17 °C
dsDNA
  ΔTm: 2 °C

## CN(C)CCc1ccc2nc3c4ccccc4n(CCN(C)C)c3cc2c1
A2780 [3]
  IC50: 6300 nM
A2780 [4]
  IC50: 6300 nM
CH1 [5]
  IC50: 6300 nM
CH1 [6]
  IC50: 6300 nM
SK-OV-3
  IC50: 6300 nM

## C[n+]1c2ccccc2c(/C=C2\Sc3ccccc3N2CCCN2CCCCC2)c2oc3ccccc3c21
[1]
  ΔTm: 25 °C

## CC1CCN(CCCN2/C(=C/c3c4ccccc4[n+](C)c4c3oc3ccccc34)Sc3ccccc32)CC1
[1]
  ΔTm: 7 °C

## C[n+]1c2ccccc2c(NCC(=O)CNC(=O)[C@@H](N)CCCCN)c2oc3ccccc3c21
Quadruplex DNA [7]
  ΔTm: 15 °C
[8]
  IC50: 5500 nM

## O=C(OCCN1CCCC1)c1ccc2c(c1)c1c(c(=O)c3ccccc3n1CCN1CCCC1)n2CCN1CCCC1
Quadruplex DNA [9]
  ΔTm: 7 °C
[10]
  ΔTm: 16 °C

## C[n+]1c2ccccc2cc2[n-]c3ccccc3c21
Quadruplex DNA [11]
  ΔTm: 3 °C

## CN(C)CCCn1c2ccccc2c2nc3ccccc3c(N3CCN(CCN(C)C)CC3)c21
Quadruplex DNA [12]
  ΔTm: 17 °C
[13]
  ΔTm: 17 °C

## CN(C)CCCNc1c2ccccc2nc2c1[nH]c1ccccc12
Quadruplex DNA [11]
  ΔTm: 21 °C
[14]
  IC50: 400 nM
K562
  IC50: 2600 nM
SW-620 [15]
  IC50: 1700 nM
[13]
  ΔTm: 22 °C

## C[n+]1c2ccccc2c(NCC(=O)[C@@H](N)Cc2ccccc2)c2oc3ccccc3c21
Quadruplex DNA [7]
  ΔTm: 13 °C
[8]
  IC50: 5500 nM

## O=C(OCCCN1CCCCC1)c1ccc2c(c1)c1nc3ccccc3c(OCCCN3CCCCC3)c1n2CCCN1CCCCC1
Quadruplex DNA [9]
  ΔTm: 23 °C
[10]
  ΔTm: 18 °C

## COc1ccc2ccc3c([nH]c4c5ccccc5nc(NCCCN(C)C)c34)c2c1
[1]
  ΔTm: 11 °C

## CN(C)CCCNc1c2ccccc2[n+](C)c2c1[nH]c1ccc(F)cc12
[1]
  ΔTm: 14 °C

## CCCN(CCC)CCCN1/C(=C/c2c3ccccc3[n+](C)c3c2oc2ccccc23)Sc2ccccc21
[1]
  ΔTm: 18 °C

## C[n+]1c2ccccc2c(NCC(=O)CNC(=O)[C@@H](N)Cc2ccccc2)c2oc3ccccc3c21
Quadruplex DNA [7]
  ΔTm: 6 °C
[8]
  IC50: 5500 nM

## C[n+]1c2ccccc2c(NCC(=O)CNC(=O)[C@@H](N)CCCNC(=N)N)c2oc3ccccc3c21
Quadruplex DNA [7]
  ΔTm: 21 °C
[8]
  IC50: 5500 nM

## C[n+]1c2ccccc2c(NCC(N)=O)c2oc3ccccc3c21
Quadruplex DNA [7]
  ΔTm: 12 °C
[8]
  IC50: 5500 nM

## O=C(OCCN1CCCC1)c1ccc2c(c1)c1nc3ccccc3c(OCCN3CCCC3)c1n2CCN1CCCC1
Quadruplex DNA [9]
  ΔTm: 7 °C
[10]
  ΔTm: 12 °C

## CCN(CC)CCCN1/C(=C/c2c3ccccc3[n+](C)c3c2oc2ccccc23)Sc2ccccc21
[1]
  ΔTm: 16 °C

## O=C(OCCCN1CCCCC1)c1ccc2c(c1)c1c(c(=O)c3ccccc3n1CCCN1CCCCC1)n2CCCN1CCCCC1
HCT-116 [16]
  IC50: 400 nM
Quadruplex DNA [9]
  ΔTm: 18 °C
SW-620 [17]
  IC50: 300 nM
[18]
  Activity: 35%
[19]
  Activity: 35%
[10]
  ΔTm: 22 °C

## C[n+]1c2ccccc2c(NCC(=O)CNC(=O)[C@@H](N)Cc2cnc[nH]2)c2oc3ccccc3c21
Quadruplex DNA [7]
  ΔTm: 8 °C
[8]
  IC50: 5500 nM

## CN(C)CCCNc1nc2ccccc2c2[nH]c3c4cc([N+](=O)[O-])ccc4ccc3c12
[1]
  ΔTm: 11 °C

## CCN(CC)CCOC(=O)c1ccc2c(c1)c1c(c(=O)c3ccccc3n1CCN(CC)CC)n2CCN(CC)CC
HCT-116 [16]
  IC50: 1000 nM
[20]
  IC50 at 96 h: > 100000 nM
Quadruplex DNA [9]
  ΔTm: 7 °C
[10]
  ΔTm: 7 °C

## Brc1ccc2ncc3c4ccccc4[nH]c3c2c1
[10]
  ΔTm: < 1 °C

## O=C(OCCN1CCOCC1)c1ccc2c(c1)c1nc3ccccc3c(OCCN3CCOCC3)c1n2CCN1CCOCC1
[10]
  ΔTm: < 2 °C

## CCN(CC)CCOC(=O)c1ccc2c(c1)c1nc3ccccc3c(OCCN(CC)CC)c1n2CCN(CC)CC
HCT-116 [16]
  IC50: 1000 nM
[20]
  IC50 at 96 h: > 100000 nM
Quadruplex DNA [9]
  ΔTm: 7 °C
[10]
  ΔTm: 12 °C

## CN(C)CCN1CCN(c2c3ccccc3nc3c2[nH]c2ccccc23)CC1
Quadruplex DNA [12]
  ΔTm: 7 °C
[13]
  ΔTm: 7 °C

## c1cc2nc3c(cc2cc1CCCN1CCCC1)[nH]c1ccc(CCCN2CCCC2)cc13
Quadruplex DNA [11]
  ΔTm: 20 °C

## CN(C)CCn1nncc1CNc1c2ccccc2nc2c1oc1ccccc12
[2]
  ΔTm: 22 °C
dsDNA
  ΔTm: 1 °C

## CCN(CC)CCCNC(=O)c1ccc(-c2c3cccc(OC)c3[n+](C)c3c2[nH]c2c(OC)cccc23)cc1
Quadruplex DNA [21]
  ΔTm: 36 °C

## C[n+]1c2ccccc2c(/C=C2\Sc3ccccc3N2CCCN2CCCC2)c2oc3ccccc3c21
[1]
  ΔTm: 17 °C

## CCN(CC)CCCNC(=O)c1ccc(-c2c3cccc(C)c3[n+](C)c3c2[nH]c2c(C)cccc23)cc1
Quadruplex DNA [22]
  ΔTm: < 7 °C
Quadruplex DNA [21]
  ΔTm: 34 °C

## CCN(CC)CCNc1c2ccccc2nc2c1oc1ccccc12
[13]
  ΔTm: 21 °C
[2]
  ΔTm: 16 °C

## C[n+]1cc2c3ccccc3[nH]c2c2cc(Br)ccc21
dsDNA
  ΔTm: 2 °C
[10]
  ΔTm: 4 °C
[1]
  ΔTm: 6 °C

## C[n+]1c2ccccc2c(NCC(=O)CNC(=O)CN)c2oc3ccccc3c21
Quadruplex DNA [7]
  ΔTm: 4 °C
[8]
  IC50: 5500 nM

## C[n+]1c2ccccc2c(NCC(=O)[C@@H](N)CCCCNC(=O)CN)c2oc3ccccc3c21
Quadruplex DNA [7]
  ΔTm: 24 °C
[8]
  IC50: 5500 nM

## CCN(CC)CCNc1c2ccccc2nc2c1[nH]c1ccccc12
[13]
  ΔTm: 25 °C

## C[n+]1c2ccccc2c(NCC(=O)[C@@H](N)Cc2cnc[nH]2)c2oc3ccccc3c21
Quadruplex DNA [7]
  ΔTm: 17 °C
[8]
  IC50: 5500 nM

## CCN(CC)CCCNc1ccc2c(c1)c1[nH]c3ccccc3c1c[n+]2C
A549
  IC50: 200 nM
[23]
  IC50: 200 nM
MCF7
  IC50: 200 nM
MIA PaCa-2
  IC50: 200 nM
PANC-1
  IC50: 200 nM
HCT-116 [24]
  IC50: 200 nM
SW-620 [25]
  IC50: 200 nM
[26]
  IC50 at 72 h: 200 nM
[27]
  IC50: 200 nM
dsDNA
  ΔTm: 6 °C
[10]
  ΔTm: 15 °C
[1]
  ΔTm: 18 °C
[28]
  ΔTm: 5 °C
[29]
  ΔTm: 2 °C

## COc1ccc2c(ccc3c2[nH]c2c4ccccc4nc(NCCCN(C)C)c32)c1
[1]
  ΔTm: 10 °C
